Laboratory results as given in paper PMC12155096 (International Journal of Molecular Sciences, 2025).
Structures can show the parent of a compound that is named as a salt. Where two headings read alike, the source gives them in different places.

How the values were obtained:
[1] = target: Photinus pyralis (firefly) luciferase (Photinus pyralis, UniProt P08659); experiment: biochemical; format: biochemical
[2] = target: T1, human CYP2C9 (Homo sapiens, UniProt P11712); experiment: biochemical
[3] = target: T2, human CYP2C19 (Homo sapiens, UniProt P33261); experiment: biochemical; settings: for AC50: CYP2C19 AC50 (half-maximal activity concentration)
T2 sequence (P33261 whole entry): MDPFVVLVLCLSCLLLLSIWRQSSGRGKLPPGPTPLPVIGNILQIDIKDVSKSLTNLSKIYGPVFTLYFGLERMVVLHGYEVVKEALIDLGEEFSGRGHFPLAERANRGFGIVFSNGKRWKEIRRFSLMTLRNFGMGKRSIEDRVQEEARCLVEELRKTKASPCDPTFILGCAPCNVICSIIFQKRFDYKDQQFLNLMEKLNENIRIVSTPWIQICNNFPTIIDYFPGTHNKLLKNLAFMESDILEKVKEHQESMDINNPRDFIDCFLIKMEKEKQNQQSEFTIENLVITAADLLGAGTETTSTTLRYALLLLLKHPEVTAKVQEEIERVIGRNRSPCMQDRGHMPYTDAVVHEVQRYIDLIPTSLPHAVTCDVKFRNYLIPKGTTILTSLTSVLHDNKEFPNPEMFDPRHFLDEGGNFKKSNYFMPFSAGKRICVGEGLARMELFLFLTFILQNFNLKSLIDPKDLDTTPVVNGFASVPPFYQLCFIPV

[4] = target: T3, human CYP1A2 (Homo sapiens, UniProt P05177)
T3 sequence (P05177 1-516): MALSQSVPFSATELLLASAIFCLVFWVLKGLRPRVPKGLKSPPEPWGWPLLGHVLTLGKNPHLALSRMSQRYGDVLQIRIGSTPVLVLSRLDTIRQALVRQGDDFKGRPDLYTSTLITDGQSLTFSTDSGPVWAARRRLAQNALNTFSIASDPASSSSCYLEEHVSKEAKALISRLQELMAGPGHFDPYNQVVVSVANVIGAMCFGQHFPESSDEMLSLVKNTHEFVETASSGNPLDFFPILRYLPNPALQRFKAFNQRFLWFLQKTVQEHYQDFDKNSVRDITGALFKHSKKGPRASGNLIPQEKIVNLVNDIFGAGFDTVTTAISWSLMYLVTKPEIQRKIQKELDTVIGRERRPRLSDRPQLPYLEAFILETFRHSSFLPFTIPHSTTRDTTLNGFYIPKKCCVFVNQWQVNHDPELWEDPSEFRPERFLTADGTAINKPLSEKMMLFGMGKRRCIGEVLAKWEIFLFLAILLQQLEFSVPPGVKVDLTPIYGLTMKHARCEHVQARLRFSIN

[5] = target: human CYP2D6 (Homo sapiens, UniProt P10635); experiment: biochemical; settings: for AC50: CYP2D6 AC50 (half-maximal activity concentration)
human CYP2D6, sequence (P10635 whole entry): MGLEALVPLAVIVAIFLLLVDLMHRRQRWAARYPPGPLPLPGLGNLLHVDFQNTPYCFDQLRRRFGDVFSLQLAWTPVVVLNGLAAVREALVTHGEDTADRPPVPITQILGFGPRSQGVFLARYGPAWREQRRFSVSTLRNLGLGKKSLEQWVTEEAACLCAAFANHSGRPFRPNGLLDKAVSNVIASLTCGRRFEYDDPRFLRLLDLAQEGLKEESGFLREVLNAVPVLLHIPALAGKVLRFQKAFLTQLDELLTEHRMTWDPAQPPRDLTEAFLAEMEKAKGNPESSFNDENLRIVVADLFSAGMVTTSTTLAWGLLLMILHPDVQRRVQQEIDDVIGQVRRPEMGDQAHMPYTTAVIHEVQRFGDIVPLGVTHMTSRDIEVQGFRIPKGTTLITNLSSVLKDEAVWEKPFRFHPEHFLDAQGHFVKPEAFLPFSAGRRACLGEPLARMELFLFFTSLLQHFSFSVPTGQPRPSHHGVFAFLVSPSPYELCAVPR

[6] = target: T3, human CYP1A2; experiment: biochemical
[7] = target: T1, human CYP2C9
[8] = target: T2, human CYP2C19
[9] = CYP1A2 IC50 (half-maximal inhibitory concentration)
[10] = CYP2C9 IC50 (half-maximal inhibitory concentration)
[11] = CYP2C19 IC50 (half-maximal inhibitory concentration)
[12] = CYP2D6 IC50 (half-maximal inhibitory concentration)

Photinus pyralis (firefly) luciferase, sequence (P08659 whole entry): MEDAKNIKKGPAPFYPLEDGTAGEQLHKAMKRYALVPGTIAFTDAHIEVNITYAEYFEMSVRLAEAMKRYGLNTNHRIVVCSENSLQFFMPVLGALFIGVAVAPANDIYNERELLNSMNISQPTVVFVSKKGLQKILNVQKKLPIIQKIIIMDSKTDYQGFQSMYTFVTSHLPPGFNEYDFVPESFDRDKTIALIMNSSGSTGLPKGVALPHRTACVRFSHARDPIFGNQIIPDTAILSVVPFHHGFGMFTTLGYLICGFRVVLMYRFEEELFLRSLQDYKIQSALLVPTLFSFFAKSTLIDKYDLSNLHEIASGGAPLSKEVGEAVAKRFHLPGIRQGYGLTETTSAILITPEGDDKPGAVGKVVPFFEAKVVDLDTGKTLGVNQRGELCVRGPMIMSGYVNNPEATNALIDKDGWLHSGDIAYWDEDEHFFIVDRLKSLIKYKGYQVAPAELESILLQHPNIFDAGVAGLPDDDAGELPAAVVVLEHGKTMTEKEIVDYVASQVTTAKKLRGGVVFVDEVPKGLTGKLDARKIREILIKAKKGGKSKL
T1 sequence (P11712 whole entry): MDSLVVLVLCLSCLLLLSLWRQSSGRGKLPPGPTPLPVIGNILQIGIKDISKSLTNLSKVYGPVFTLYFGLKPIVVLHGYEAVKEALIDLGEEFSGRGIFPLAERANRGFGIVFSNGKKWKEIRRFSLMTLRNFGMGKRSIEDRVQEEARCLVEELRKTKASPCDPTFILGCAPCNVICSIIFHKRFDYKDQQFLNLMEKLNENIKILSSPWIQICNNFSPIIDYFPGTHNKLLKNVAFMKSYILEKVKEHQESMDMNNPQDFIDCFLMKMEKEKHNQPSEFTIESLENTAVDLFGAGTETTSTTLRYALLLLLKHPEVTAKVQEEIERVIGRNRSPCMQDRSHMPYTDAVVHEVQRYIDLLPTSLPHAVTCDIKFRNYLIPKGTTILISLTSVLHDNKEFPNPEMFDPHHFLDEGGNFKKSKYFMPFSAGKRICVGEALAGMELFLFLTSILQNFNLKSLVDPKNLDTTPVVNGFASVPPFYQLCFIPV

SMILES | Luciferase IC50 [1] | IC50 [2] | CYP1A2 IC50 [4] | IC50 [5] | IC50 ([2]; CYP2C9 IC50) | IC50 ([3]; CYP2C19 IC50) | IC50 ([5]; CYP2D6 IC50) | IC50 ([6]; CYP1A2 IC50) | other results
C=CC[C@]1(O)CC[C@H]2[C@@H]3CCC4=CC(=O)CCC4=C3C=C[C@@]21C [Altrenogest] | Inactive | 14.8 ± 4.35 µM | Inactive | 46900 ± 11400 nM | – | – | – | – | IC50 [3]: 8.15 ± 2.81 µM
Nc1ccc(C(=O)N2CC3CC(CN(Cc4ccccc4)C3)C2)cc1 [Ambasilide] | Inactive | 22.7 µM | – | 20100 nM | – | – | – | – | IC50 [6]: 30.9 µM; IC50 [3]: 30 µM
C[C@@H](O[C@H]1OCCN(Cc2n[nH]c(=O)[nH]2)[C@H]1c1ccc(F)cc1)c1cc(C(F)(F)F)cc(C(F)(F)F)c1 [Aprepitant] | Inactive | – | Inactive | – | 13.8 µM | 23.9 µM | 25000 nM | – | –
CCN(CC)CCOC(=O)C(C)(c1ccccc1)c1ccccc1 [Aprofene] | Inactive | 12.9 µM | Inactive | 1570 nM | – | 12.3 µM | – | – | –
CCC1(c2cnc[nH]2)Cc2ccccc2C1 [Atipamezole] | Inactive | 1.21 ± 0.3 µM | – | 870 ± 100 nM | – | – | – | – | IC50 [6]: 11 ± 2.84 µM; IC50 [3]: 1.42 ± 0.4 µM
CC(C)COCC(CN(Cc1ccccc1)c1ccccc1)N1CCCC1 (stereo not shown) [Bepridil] | Inactive | – | Inactive | – | – | – | 60 nM | – | –
CC(CC1c2ccccc2CCc2ccccc21)CN(C)C (stereo not shown) [Butriptyline] | – | – | Inactive | – | – | 8.39 µM | 970 nM | – | IC50 [1]: 8.71 µM; CYP2C9 IC50 [7]: Inactive
Nc1ccc2c(c1)CN1C(=O)c3ccccc3C1=N2 [Daniquidone] | – | – | – | – | – | – | – | – | IC50 [6, 9]: 0.67 µM; IC50 [1]: 0.36 µM; IC50 [2, 10]: 5.05 µM; IC50 [3, 11]: 2.8 µM; IC50 [5, 12]: 4390 nM
CN(C)[C@@H](CCOc1cccc2ccccc12)c1ccccc1 [Dapoxetine] | Inactive | 16.8 ± 2.32 µM | – | 980 ± 110 nM | – | – | – | – | IC50 [6]: 5.87 ± 1.73 µM; IC50 [3]: 1.21 ± 0.3 µM
Cc1cccc(Cc2c[nH]cn2)c1C [Detomidine hydrochloride] | Inactive | – | – | – | 0.41 µM | 1.96 µM | 2370 nM | 1.15 µM | –
COc1ccc([C@@H]2Sc3ccccc3N(CCN(C)C)C(=O)[C@@H]2OC(C)=O)cc1 [Diltiazem] | – | – | – | – | – | – | – | – | Luciferase IC50 (half-maximal inhibitory concentration) [1]: Inactive; CYP1A2 IC50 (half-maximal inhibitory concentration) [4]: Inactive; IC50 [5, 12]: 19100 nM; CYP2C19 IC50 (half-maximal inhibitory concentration) [8]: Inactive; CYP2C9 IC50 (half-maximal inhibitory concentration) [7]: Inactive
[O-][n+]1ccccc1SSc1cccc[n+]1[O-] [Dipyrithione] | – | – | – | – | 1.72 µM | 0.79 µM | 1660 nM | 3.2 µM | AC50 ([6]; CYP1A2 AC50 (half-maximal activity concentration)): 3.2 µM; IC50 [1]: 0.45 µM; AC50 ([2]; CYP2C9 AC50 (half-maximal activity concentration)): 1720 nM; AC50 [3]: 0.79 µM; AC50 [5]: 1660 nM
CC1=C(C)C(=O)C(CCCCC#CCCCC#CCO)=C(C)C1=O [Docebenone] | Inactive | – | – | – | 5.22 µM | 11.4 µM | 25800 nM | 3.27 µM | –
CCN(CC)CCOC(=O)C(c1ccccc1)C1CCCCC1 (stereo not shown) [Drofenine hydrochloride] | Inactive | – | – | – | 26 µM | 18.8 µM | 1190 nM | 5.85 µM | –
CN1C[C@H](C(=O)N[C@]2(C)O[C@@]3(O)[C@@H]4CCCN4C(=O)[C@H](Cc4ccccc4)N3C2=O)C=C2c3cccc4[nH]cc(c34)C[C@H]21 [Ergotamine D-tartrate] | – | – | – | – | – | – | – | – | IC50 [6, 9]: 22.6 µM; IC50 [1]: 42.1 µM; IC50 [2, 10]: 16.5 µM; IC50 [3, 11]: 37.4 µM; IC50 [5, 12]: 31300 nM
CC[n+]1c(-c2ccccc2)c2cc(N)ccc2c2ccc(N)cc21 [Ethidium bromide] | Inactive | – | – | – | 47.7 µM | 13.1 µM | 930 nM | 9.62 µM | –
CCCCCCCCCCCCCCCC[N+](C)(C)CC [Ethylhexadecyldimethylammonium bromide] | Inactive | 83.1 ± 5.63 µM | – | 610 ± 40 nM | – | – | – | – | IC50 [6]: 74.4 ± 9.49 µM; IC50 [3]: 89.6 µM
CN(C)c1ccc(N=NS(=O)(=O)O)cc1 [Fenaminosulf] | – | 7.38 µM | – | 12200 nM | – | – | – | – | IC50 [6]: 5.75 µM; IC50 [1]: 44.1 µM; IC50 [3]: 1.36 µM
CC(NCCC(c1ccccc1)c1ccccc1)c1ccccc1 (stereo not shown) [Fendiline hydrochloride] | Inactive | – | Inactive | – | 15.5 µM | 5.65 µM | 230 nM | – | –

SMILES | Luciferase IC50 [1] | IC50 [2] | CYP1A2 IC50 [4] | IC50 [5] | IC50 ([2]; CYP2C9 IC50) | IC50 ([3]; CYP2C19 IC50) | IC50 ([5]; CYP2D6 IC50) | IC50 ([6]; CYP1A2 IC50) | other results
COP(=S)(OC)Oc1ccc(SC)c(C)c1 [Fenthion] | – | 6.1 µM | – | 37200 nM | – | 0.91 µM | – | 2.53 µM | IC50 [1]: 44.8 µM
O=c1cc(-c2ccccc2)oc2ccccc12 [Flavone] | – | 14.6 µM | – | 62500 ± 38100 nM | – | – | – | – | IC50 [6]: 0.26 µM; IC50 [1]: 21.6 µM; IC50 [3]: 23.2 ± 7.47 µM
CCCCC(CC)CN1CN(CC(CC)CCCC)CC(C)(N)C1 (stereo not shown) [Hexetidine] | Inactive | – | Inactive | – | – | – | 480 nM | – | CYP2C19 IC50 [8]: Inactive; CYP2C9 IC50 [7]: Inactive
CN1CCCN(C(c2ccccc2)c2ccc(Cl)cc2)CC1 (stereo not shown) [Homochlorcyclizine] | Inactive | – | Inactive | – | – | 26.3 µM | 380 nM | – | CYP2C9 IC50 [7]: Inactive
CCOC(=O)CC(SP(=S)(OC)OC)C(=O)OCC (stereo not shown) [Malathion] | – | – | – | – | 1.78 µM | 0.54 µM | 58100 nM | 2.12 µM | IC50 [1]: 37 µM
Cc1cc(O)c2ccccc2c1O [Menadiol] | Inactive | – | – | – | 12.2 µM | 13.4 µM | 19300 nM | 0.8 µM | –
COc1nn(CSP(=S)(OC)OC)c(=O)s1 [Methidathion] | – | 6.58 µM | – | 35700 nM | – | 0.8 µM | – | 6.58 µM | IC50 [1]: 44 µM
COCC(=O)O[C@]1(CCN(C)CCCc2nc3ccccc3[nH]2)CCc2cc(F)ccc2[C@@H]1C(C)C [Mibefradil dihydrochloride] | Inactive | – | Inactive | – | – | – | 530 nM | – | IC50 [3]: 38.9 µM; CYP2C9 IC50 [7]: Inactive
O=C(NCCc1c[nH]c2ccccc12)c1cccnc1 [Nicotredole] | – | – | – | – | – | – | – | – | IC50 [6, 9]: 14.6 µM; IC50 [1]: 35.1 µM; IC50 [2, 10]: 15.1 µM; IC50 [3, 11]: 8.39 µM; IC50 [5, 12]: 31000 nM
Nc1c(Cl)c(Cl)c(Cl)c(Cl)c1Cl [Pentachloroaniline] | Inactive | 51.5 µM | – | 75300 nM | – | 44 µM | – | 0.85 µM | –
CCCN1C[C@H](CSC)C[C@@H]2c3cccc4[nH]cc(c34)C[C@H]21 [Pergolide methanesulfonate] | Inactive | – | – | – | 6.26 µM | 8.43 µM | 150 nM | 6.54 µM | –
c1ccc2c(c1)Nc1ccccc1S2 [Phenothiazine] | – | – | – | – | – | – | – | – | IC50 [6, 9]: 0.97 µM; IC50 [1]: 58.1 µM; IC50 [2, 10]: 40.4 µM; IC50 [3, 11]: 4.3 µM; IC50 [5, 12]: 30800 nM
Cc1ccc(N(CC2=NCCN2)c2cccc(O)c2)cc1 [Phentolamine mesilate] | Inactive | – | Inactive | – | – | 14.6 µM | 650 nM | – | CYP2C9 IC50 [7]: Inactive
CCOP(=S)(OCC)O/N=C(\C#N)c1ccccc1 [Phoxim] | Inactive | 2.04 µM | – | 22500 nM | – | 0.28 µM | – | 0.99 µM | –
CN1CCC(=C2c3ccccc3CCc3sccc32)CC1 [Pizotifen] | Inactive | – | Inactive | – | – | 8.71 µM | 960 nM | – | AC50 [3]: 8.71 µM; AC50 [5]: 960 nM; CYP2C9 IC50 [7]: Inactive
CCCC(C(=O)OCCN(CC)CC)(c1ccccc1)c1ccccc1 [Proadifen hydrochloride] | Inactive | – | Inactive | – | 12.1 µM | 19.1 µM | 200 nM | – | –
O=C1NCN(c2ccccc2)C12CCN(CC1COc3ccccc3O1)CC2 (stereo not shown) [Spiroxatrine] | Inactive | – | Inactive | – | 10.8 µM | 8.64 µM | 190 nM | – | –
CN1CCC(N(Cc2cccs2)c2ccccc2)CC1 [Thenalidine] | Inactive | – | Inactive | – | – | 36.8 µM | 530 nM | – | AC50 [5]: 530 nM; CYP2C9 IC50 [7]: Inactive
